Experiment: Ability to inhibit calf thymus topoisomerase I when assayed in the cleavable complex formation

| SMILES | IC50 |
| --- | --- |
| CC[C@@]1(O)C(=O)OCc2c1cc1n(c2=O)Cc2cc3cc(N)c(O)cc3nc2-1 [(S)-9-Amino-4-ethyl-4,8-dihydroxy-1,12-dihydro-4H-2-oxa-6,12a-diaza-dibenzo[b,h]fluorene-3,13-dione] | 0.17 µM |
| CC[C@@]1(O)C(=O)OCc2c1cc1n(c2=O)Cc2cc3cc4ncoc4cc3nc2-1 [7-ethyl-7-hydroxy-(7S)-7,8,11,13-tetrahydro-10H-[1,3]oxazolo[4,5-g]pyrano[3',4':6,7]indolizino[1,2-b]quinoline-8,11-dione] | 0.15 µM |
